Test results published in patent publication US20120255051A1, “HERBICIDE TOLERANT PLANTS” (priority 2009, published 2012).
“And” between values parts separate entries of the source, which are not always exact repeats. Identical values can stand only once.

Test system: Brassica plants comprising mutant AHAS alleles
Experiment: Field trial, pre-planting treatment (0, 10, 20, 30 g a.i./ha), two locations in Canada: ERG, EST1, EST2, PPTOX, VIG1, VIG2, VIG3 scores
Assay type: in vivo, Brassica napus
From the text: Tests were set up and conducted to asses the growth and performance of plants comprising AHAS full knock-out alleles, and to further analyze the correlation between the presence of full knockout and missense AHAS genes in Brassica plants and plant growth and herbicide tolerance of the Brassica plants in the field. To this end, the Brassica plants identified in Example 1 and 2 were backcrossed two times with an elite parent line, and subsequently selfed twice to obtain homozygous plants (BC2S2). Plants were grown as row plots in a split plot design with three replicates (main plots=herbicide treatments, subplots=genotypes) at two locations in Canada. Treatment pre-planting was carried out on the soil about two days before sowing with a dose of 0 (treatment A), 10 (treatment B), 20 (treatment C) or 30 (treatment D) g a.i./ha of thiencarbazone methyl. Herbicide tolerance was measured by scoring for different parameters. The parameter emergence (ERG) was scored at the cotyledon stage on a scale 1-9, where 1 means late emergence and 9 means early emergence. Establishment was scored 14 days after sowing (EST1) and 21 days after sowing (EST2). Scores were from 1 to 9, where 1 is the worst establishment (least plants that emerged), and 9 is the best establishment (most plants emerged). Phytotoxicity (PPTOX) was determined after establishment. Plants were evaluated on a scale of 1 to 9, where 1=completely yellowing, 5=50% of plant is yellow and 9=no yellowing. The vigor scores (see above) were determined at 1-2 leaf stage (VIG1), 7 days after VIG1 (VIG2) and 14 days after VIG1 (VIG3). The average values (Av) and standard deviations (SD) of the scores for the different parameters are represented in Table 7a-g.
Further, the contribution of the knock-out allele to herbicide tolerance conferred by the missense allele was calculated. First, the scores were corrected for a possible effect of the growth per se, independent of herbicide treatment. To this end, the scores for treatments B, C and D were divided by the scores for treatment A for the same genotype and for the same parameter (corrected herbicide tolerance scores). Next, the effect of the knock-out allele to these corrected herbicide tolerance scores obtained by the missense allele was calculated. Therefore, the corrected herbicide tolerance scores for the missense—knock-out allele combination was divided by the corrected herbicide tolerance scores for the missense allele—wild-type combination. In case the knock-out allele has no effect on herbicide tolerance conferred by the missense allele, this ratio should be 1. In case the knock-out allele positively contributes to the herbicide tolerance conferred by the missense allele, this ratio should be higher than 1. The results for the contribution of the knock-out allele to herbicide tolerance conferred by the missense allele as calculated above are shown in table 8.

[1] = AHAS1 HETO108/AHAS3 HETO104, 30 g a.i./ha pre-planting (D), Location A
[2] = AHAS1 HETO108/AHAS3 HETO104, 30 g a.i./ha pre-planting (D), Location B
[3] = AHAS1 HETO108/AHAS3 HETO111, 10 g a.i./ha pre-planting (B), Location A
[4] = AHAS1 HETO108/AHAS3 HETO111, 10 g a.i./ha pre-planting (B), Location B
[5] = AHAS1 HETO108/AHAS3 HETO111, 20 g a.i./ha pre-planting (C), Location A
[6] = AHAS1 HETO108/AHAS3 HETO111, 20 g a.i./ha pre-planting (C), Location B
[7] = AHAS1 HETO108/AHAS3 HETO111, 30 g a.i./ha pre-planting (D), Location A
[8] = AHAS1 HETO108/AHAS3 HETO111, 30 g a.i./ha pre-planting (D), Location B
[9] = AHAS1 HETO108/AHAS3 WT, 10 g a.i./ha pre-planting (B), Location A
[10] = AHAS1 HETO108/AHAS3 WT, 10 g a.i./ha pre-planting (B), Location B
[11] = AHAS1 HETO108/AHAS3 WT, 20 g a.i./ha pre-planting (C), Location A
[12] = AHAS1 HETO108/AHAS3 WT, 20 g a.i./ha pre-planting (C), Location B
[13] = AHAS1 HETO108/AHAS3 WT, 30 g a.i./ha pre-planting (D), Location A
[14] = AHAS1 HETO108/AHAS3 WT, 30 g a.i./ha pre-planting (D), Location B
[15] = AHAS1 HETO112, AHAS3 HETO111, treatment B 10 g a.i./ha pre-planting, Location A
[16] = AHAS1 HETO112, AHAS3 HETO111, treatment B 10 g a.i./ha pre-planting, Location B
[17] = AHAS1 HETO112, AHAS3 HETO111, treatment C 20 g a.i./ha pre-planting, Location A
[18] = AHAS1 HETO112, AHAS3 HETO111, treatment C 20 g a.i./ha pre-planting, Location B
[19] = AHAS1 HETO112, AHAS3 HETO111, treatment D 30 g a.i./ha pre-planting, Location A
[20] = AHAS1 HETO112, AHAS3 HETO111, treatment D 30 g a.i./ha pre-planting, Location B
[21] = AHAS1 HETO112, AHAS3 WT, treatment B 10 g a.i./ha pre-planting, Location A

## COC(=O)c1csc(C)c1S(=O)(=O)NC(=O)n1nc(OC)n(C)c1=O [thiencarbazone-methyl, methyl 4-[(4,5-dihydro-3-methoxy-4-methyl-5-oxo-1H-1,2,4-triazol-1-yl)carbonylsulfamoyl]-5-methylthiophene-3-carboxylate]
AHAS1 HETO108/AHAS3 HETO104, 20 g a.i./ha pre-planting (C), Location B
  vigor2 (VIG2) score, Av: 6.33
[1]
  establishment (EST2) score, Av: 5.33
  phytotoxicity (PPTOX) score, Av: 5.00
  vigor2 (VIG2) score, Av: 5.67
[2]
  establishment (EST2) score, Av: 5.33
  phytotoxicity (PPTOX) score, Av: 6.33
  vigor2 (VIG2) score, Av: 6.00
[3]
  establishment (EST2) score, Av: 6.33
  vigor1 (VIG1) score, Av: 6.33
  vigor2 (VIG2) score, Av: 7.33
[4]
  establishment (EST2) score, Av: 6.00
  vigor2 (VIG2) score, Av: 7.00
[5]
  establishment (EST2) score, Av: 5.67
  phytotoxicity (PPTOX) score, Av: 5.00
  vigor2 (VIG2) score, Av: 6.33
[6]
  establishment (EST2) score, Av: 5.33
  vigor1 (VIG1) score, Av: 5.00
  vigor2 (VIG2) score, Av: 6.33
[7]
  establishment (EST2) score, Av: 6.00
  phytotoxicity (PPTOX) score, Av: 6.00
  vigor1 (VIG1) score, Av: 6.00
  vigor2 (VIG2) score, Av: 7.00
[8]
  establishment (EST2) score, Av: 4.00
  vigor2 (VIG2) score, Av: 4.33
[9]
  establishment (EST2) score, Av: 6.67 and 6.33
  phytotoxicity (PPTOX) score, Av: 7.00
  vigor1 (VIG1) score, Av: 7.00 and 6.00
  vigor2 (VIG2) score, Av: 8.33 and 7.67
[10]
  establishment (EST2) score, Av: 5.00 and 5.33
  phytotoxicity (PPTOX) score, Av: 6.33 and 5.00
  vigor1 (VIG1) score, Av: 6.00
  vigor2 (VIG2) score, Av: 5.33 and 5.67
[11]
  establishment (EST2) score, Av: 5.00 and 5.67
  phytotoxicity (PPTOX) score, Av: 5.00
  vigor1 (VIG1) score, Av: 6.00
  vigor2 (VIG2) score, Av: 6.67
[12]
  phytotoxicity (PPTOX) score, Av: 7.00
  vigor1 (VIG1) score, Av: 5.00
  vigor2 (VIG2) score, Av: 6.33 and 7.67
[13]
  establishment (EST2) score, Av: 5.67 and 5.33
  phytotoxicity (PPTOX) score, Av: 5.00
  vigor2 (VIG2) score, Av: 6.33
[14]
  phytotoxicity (PPTOX) score, Av: 5.00
  vigor1 (VIG1) score, Av: 5.00
  vigor2 (VIG2) score, Av: 5.00 and 5.33
[15]
  emergence (ERG) score Av: 4.33
  establishment (EST1) score Av, 14 days after sowing: 5.00
[16]
  emergence (ERG) score Av: 4.33
  establishment (EST1) score Av, 14 days after sowing: 5.67
[17]
  emergence (ERG) score Av: 5.00
  establishment (EST1) score Av, 14 days after sowing: 5.33
[18]
  emergence (ERG) score Av: 4.00
  establishment (EST1) score Av, 14 days after sowing: 5.00
[19]
  emergence (ERG) score Av: 5.33
  establishment (EST1) score Av, 14 days after sowing: 5.67
[20]
  emergence (ERG) score Av: 3.00
  establishment (EST1) score Av, 14 days after sowing: 3.67
[21]
  emergence (ERG) score Av: 1.67
  establishment (EST1) score Av, 14 days after sowing: 1.67
AHAS1 HETO112, AHAS3 WT, treatment B 10 g a.i./ha pre-planting, Location B
  emergence (ERG) score Av: 1.67
